Test results: patent US4845109A, “Alkoxy-and phenoxy alkyl esters of 2,6-dimethyl-4-(2-difluoromethoxyphenyl)-1,4-dihydropyridine-3,5-carboxy lic acid” (priority 1988, dated 1989)

How the values were obtained:
arterial pressure [1] = test: Acute experiments on narcotized cats: reduction of arterial pressure (intravenous); assay type: in vivo; conditions: for ED30: Felis catus, read-out: ED30 (average dose that reduces the arterial pressure by 30%)
Procedure: In acute experiments on cats narcotized with glucochloralose and urethane (90 and 200 mg/kg, respectively, administered intraperitoneally), there were recorded arterial pressure from the common carotid artery, respiration and an ECG with standard lead II. The compounds under study were administered intravenously as a dimethylacetamide solution.
(§1) Average doses of the compounds under study that
(§2) reduce the arterial pressure in narcotized animals by 30%

in vivo = conditions: mouse, ip
Excerpt: Acute toxicity of the compounds involved compared
with the known drugs tested on albino mice
(intraperitoneal administration)

cerebral vessels = conditions: background art; cited from earlier work
vertebral artery = test: Blood circulation rate in vertebral artery of narcotized dogs; assay type: in vivo; conditions: intravenous
carotid artery = test: Blood circulation rate in carotid artery of narcotized dogs; assay type: in vivo; conditions: intravenous
coronary artery = test: Blood circulation rate in coronary artery of narcotized dogs; assay type: in vivo; conditions: intravenous
femoral artery = test: Blood circulation rate in femoral artery of narcotized dogs; assay type: in vivo; conditions: intravenous
[2] = background art, occasionally; cited from earlier work
[3] = tested on: systolic arterial pressure; test: Hypotensive effect in spontaneously hypertensive rats (SHR), oral; assay type: in vivo; conditions: for Hypotensive effect compared with Niphedipin / Hypotensive potency: 3 and 10 mg/kg
arterial pressure [4] = test: Hypotensive activity in narcotized rats: reduction of arterial pressure; assay type: in vivo; conditions: Rattus norvegicus; narcotized rats (urethane); read-out: ED30 (average dose that reduces the arterial pressure by 30%)
Excerpt: as §1, §2

[5] = tested on: arteries supplying blood to the heart and brain; test: Systolic arterial pressure and blood circulation in arteries of heart and brain of narcotized dogs; assay type: in vivo; conditions: intravenous

COC(=O)C1=C(C)NC(C)=C(C(=O)OCCN(C)Cc2ccccc2)C1c1cccc([N+](=O)[O-])c1.Cl (stereo not drawn) [Nicardipin, 2,6-dimethyl-3-methoxy-carbonyl-4-(3-nitrophenyl)-5-[2(N-benzyl-N-methylamino)ethoxycarbonyl]-1,4-dihydropyridine hydrochloride, reference compound]
Persistence of hypotensive effect (arterial pressure [1]): 8 min | ED30 (arterial pressure [1]): 0.025 mg/kg | LD50 (in vivo): 225 mg/kg | Activity (cerebral vessels): inadequate activity | Vasodilation activity (cerebral vessels): vasodilation activity preponderantly towards cerebral vessels | Blood circulation rate in vertebral artery, percentage increase (vertebral artery; 0.001 mg/kg): 14% | Blood circulation rate in vertebral artery, persistence (vertebral artery; 0.001 mg/kg): 6 min | Blood circulation rate in vertebral artery, percentage increase (vertebral artery; 0.002 mg/kg): 40% | Blood circulation rate in vertebral artery, persistence (vertebral artery; 0.002 mg/kg): 20 min | Blood circulation rate in carotid artery, percentage increase (carotid artery; 0.001 mg/kg): 14% | Blood circulation rate in carotid artery, persistence (carotid artery; 0.001 mg/kg): 6 min | Blood circulation rate in carotid artery, percentage increase (carotid artery; 0.002 mg/kg): 60% | Blood circulation rate in carotid artery, persistence (carotid artery; 0.002 mg/kg): 12 min | Blood circulation rate in coronary artery, percentage increase (coronary artery; 0.001 mg/kg): 12% | Blood circulation rate in coronary artery, persistence (coronary artery; 0.001 mg/kg): 5 min | Blood circulation rate in coronary artery, percentage increase (coronary artery; 0.002 mg/kg): 30% | Blood circulation rate in coronary artery, persistence (coronary artery; 0.002 mg/kg): 12 min | Blood circulation rate in femoral artery, percentage increase (femoral artery; 0.001 mg/kg): 10% | Blood circulation rate in femoral artery, persistence (femoral artery; 0.001 mg/kg): 5 min | Blood circulation rate in femoral artery, percentage increase (femoral artery; 0.002 mg/kg): 26% | Blood circulation rate in femoral artery, persistence (femoral artery; 0.002 mg/kg): 10 min

COC(=O)C1=C(C)NC(C)=C(C(=O)OC)C1c1ccccc1[N+](=O)[O-] [Niphedipin, 2,6-dimethyl-3,5-dimethoxycarbonyl-4-(2-nitrophenyl)-1,4-dihydropyrine, reference compound]
Persistence of hypotensive effect (arterial pressure [1]): 6 min | ED30 (arterial pressure [1]): 0.02 mg/kg | Side effects [2]: dizziness and nausea | Tachycardia [3]: tachycardia

CCOCCOC(=O)C1=C(C)NC(C)=C(C(=O)OCCOCC)C1c1ccccc1OC(F)F [R = C2 H4 OC2 H5, 2,6-dimethyl-3,5-bis-(2-ethoxyethoxycarbonyl)-4-(2-difluoromethoxyphenyl)-1,4-dihydropyridine]
Persistence of hypotensive effect (arterial pressure [1]): 6 min | ED30 (arterial pressure [1]): 0.01 mg/kg | LD50 (in vivo): 2200 mg/kg | ED30 (arterial pressure [4]): 0.018 mg/kg | Tachycardia [3]: not causative of tachycardia | Hypotensive effect compared with Niphedipin [3]: does not differ substantially | Hypotensive potency [3]: most markedly pronounced hypotensive potency

CCCOCCOC(=O)C1=C(C)NC(C)=C(C(=O)OCCOCCC)C1c1ccccc1OC(F)F [R = C2 H4 OC3 H7, 2,6-dimethyl-3,5-bis-(2-propoxyethoxycarbonyl)-4-(2-difluoromethoxyphenyl)-1,4-dihydropyridine]
Persistence of hypotensive effect (arterial pressure [1]): 7 min | ED30 (arterial pressure [1]): 0.0045 mg/kg | Intensity and duration of effect on blood circulation rate compared with Nicardipin [5]: much more potent | LD50 (in vivo): 450 mg/kg | Blood circulation rate in vertebral artery, percentage increase (vertebral artery; 0.0005 mg/kg): 20% | Blood circulation rate in vertebral artery, persistence (vertebral artery; 0.0005 mg/kg): 8 min | Blood circulation rate in vertebral artery, percentage increase (vertebral artery; 0.001 mg/kg): 90% | Blood circulation rate in vertebral artery, persistence (vertebral artery; 0.001 mg/kg): 18 min | Blood circulation rate in vertebral artery, percentage increase (vertebral artery; 0.002 mg/kg): 110% | Blood circulation rate in vertebral artery, persistence (vertebral artery; 0.002 mg/kg): 20 min | ED30 (arterial pressure [4]): 0.008 mg/kg | Blood circulation rate in carotid artery, percentage increase (carotid artery; 0.0005 mg/kg): 17% | Blood circulation rate in carotid artery, persistence (carotid artery; 0.0005 mg/kg): 5 min | Blood circulation rate in carotid artery, percentage increase (carotid artery; 0.001 mg/kg): 60% | Blood circulation rate in carotid artery, persistence (carotid artery; 0.001 mg/kg): 15 min | Blood circulation rate in carotid artery, percentage increase (carotid artery; 0.002 mg/kg): 100% | Blood circulation rate in carotid artery, persistence (carotid artery; 0.002 mg/kg): 20 min | Blood circulation rate in coronary artery, percentage increase (coronary artery; 0.0005 mg/kg): 10% | Blood circulation rate in coronary artery, persistence (coronary artery; 0.0005 mg/kg): 5 min | Blood circulation rate in coronary artery, percentage increase (coronary artery; 0.001 mg/kg): 30% | Blood circulation rate in coronary artery, persistence (coronary artery; 0.001 mg/kg): 8 min | Blood circulation rate in coronary artery, percentage increase (coronary artery; 0.002 mg/kg): 50% | Blood circulation rate in coronary artery, persistence (coronary artery; 0.002 mg/kg): 12 min | Blood circulation rate in femoral artery, percentage increase (femoral artery; 0.0005 mg/kg): 0% | Blood circulation rate in femoral artery, percentage increase (femoral artery; 0.001 mg/kg): 10% | Blood circulation rate in femoral artery, persistence (femoral artery; 0.001 mg/kg): 8 min | Blood circulation rate in femoral artery, percentage increase (femoral artery; 0.002 mg/kg): 25% | Blood circulation rate in femoral artery, persistence (femoral artery; 0.002 mg/kg): 10 min | Hypotensive effect compared with Niphedipin [3]: does not differ substantially | Hypotensive potency [3]: most markedly pronounced hypotensive potency

CC1=C(C(=O)OCCOc2ccccc2)C(c2ccccc2OC(F)F)C(C(=O)OCCOc2ccccc2)=C(C)N1 [R = C2 H4 OC6 H5, 2,6-dimethyl-3,5-bis-(2phenoxyethoxycarbonyl)-4-(2difluoromethoxyphenyl)-1,4-dihydropyridine]
Persistence of hypotensive effect (arterial pressure [1]): 7 min | ED30 (arterial pressure [1]): 0.02 mg/kg | LD50 (in vivo): 790 mg/kg | ED30 (arterial pressure [4]): 0.03 mg/kg | Hypotensive effect compared with Niphedipin [3]: does not differ substantially | Hypotensive potency [3]: most markedly pronounced hypotensive potency

COCCOC(=O)C1=C(C)NC(C)=C(C(=O)OCCOC)C1c1ccccc1OC(F)F [R = C2 H4 OCH3, 2,6-dimethyl-3,5-bis-(2-methoxyethoxycarbonyl)-4-(2-difluoromethoxyphenyl)-1,4-dihydropyridine]
Persistence of hypotensive effect (arterial pressure [1]): 3 min | ED30 (arterial pressure [1]): 0.045 mg/kg | LD50 (in vivo): 1130 mg/kg | ED30 (arterial pressure [4]): 0.04 mg/kg

COCC(C)OC(=O)C1=C(C)NC(C)=C(C(=O)OC(C)COC)C1c1ccccc1OC(F)F (stereo not drawn) [R = CH(CH3)CH2 OCH3, 2,6-dimethyl-3,5-bis-[(1-methyl-2-methoxy)-ethoxycarbonyl]-4-(2-difluoromethoxyphenyl)-1,4-dihydropyridine]
Persistence of hypotensive effect (arterial pressure [1]): 10 min | ED30 (arterial pressure [1]): 0.038 mg/kg | LD50 (in vivo): 2500 mg/kg
